The structures appear in SMILES notation.

Chain of Cav3.2 (O95180 whole entry, looked up): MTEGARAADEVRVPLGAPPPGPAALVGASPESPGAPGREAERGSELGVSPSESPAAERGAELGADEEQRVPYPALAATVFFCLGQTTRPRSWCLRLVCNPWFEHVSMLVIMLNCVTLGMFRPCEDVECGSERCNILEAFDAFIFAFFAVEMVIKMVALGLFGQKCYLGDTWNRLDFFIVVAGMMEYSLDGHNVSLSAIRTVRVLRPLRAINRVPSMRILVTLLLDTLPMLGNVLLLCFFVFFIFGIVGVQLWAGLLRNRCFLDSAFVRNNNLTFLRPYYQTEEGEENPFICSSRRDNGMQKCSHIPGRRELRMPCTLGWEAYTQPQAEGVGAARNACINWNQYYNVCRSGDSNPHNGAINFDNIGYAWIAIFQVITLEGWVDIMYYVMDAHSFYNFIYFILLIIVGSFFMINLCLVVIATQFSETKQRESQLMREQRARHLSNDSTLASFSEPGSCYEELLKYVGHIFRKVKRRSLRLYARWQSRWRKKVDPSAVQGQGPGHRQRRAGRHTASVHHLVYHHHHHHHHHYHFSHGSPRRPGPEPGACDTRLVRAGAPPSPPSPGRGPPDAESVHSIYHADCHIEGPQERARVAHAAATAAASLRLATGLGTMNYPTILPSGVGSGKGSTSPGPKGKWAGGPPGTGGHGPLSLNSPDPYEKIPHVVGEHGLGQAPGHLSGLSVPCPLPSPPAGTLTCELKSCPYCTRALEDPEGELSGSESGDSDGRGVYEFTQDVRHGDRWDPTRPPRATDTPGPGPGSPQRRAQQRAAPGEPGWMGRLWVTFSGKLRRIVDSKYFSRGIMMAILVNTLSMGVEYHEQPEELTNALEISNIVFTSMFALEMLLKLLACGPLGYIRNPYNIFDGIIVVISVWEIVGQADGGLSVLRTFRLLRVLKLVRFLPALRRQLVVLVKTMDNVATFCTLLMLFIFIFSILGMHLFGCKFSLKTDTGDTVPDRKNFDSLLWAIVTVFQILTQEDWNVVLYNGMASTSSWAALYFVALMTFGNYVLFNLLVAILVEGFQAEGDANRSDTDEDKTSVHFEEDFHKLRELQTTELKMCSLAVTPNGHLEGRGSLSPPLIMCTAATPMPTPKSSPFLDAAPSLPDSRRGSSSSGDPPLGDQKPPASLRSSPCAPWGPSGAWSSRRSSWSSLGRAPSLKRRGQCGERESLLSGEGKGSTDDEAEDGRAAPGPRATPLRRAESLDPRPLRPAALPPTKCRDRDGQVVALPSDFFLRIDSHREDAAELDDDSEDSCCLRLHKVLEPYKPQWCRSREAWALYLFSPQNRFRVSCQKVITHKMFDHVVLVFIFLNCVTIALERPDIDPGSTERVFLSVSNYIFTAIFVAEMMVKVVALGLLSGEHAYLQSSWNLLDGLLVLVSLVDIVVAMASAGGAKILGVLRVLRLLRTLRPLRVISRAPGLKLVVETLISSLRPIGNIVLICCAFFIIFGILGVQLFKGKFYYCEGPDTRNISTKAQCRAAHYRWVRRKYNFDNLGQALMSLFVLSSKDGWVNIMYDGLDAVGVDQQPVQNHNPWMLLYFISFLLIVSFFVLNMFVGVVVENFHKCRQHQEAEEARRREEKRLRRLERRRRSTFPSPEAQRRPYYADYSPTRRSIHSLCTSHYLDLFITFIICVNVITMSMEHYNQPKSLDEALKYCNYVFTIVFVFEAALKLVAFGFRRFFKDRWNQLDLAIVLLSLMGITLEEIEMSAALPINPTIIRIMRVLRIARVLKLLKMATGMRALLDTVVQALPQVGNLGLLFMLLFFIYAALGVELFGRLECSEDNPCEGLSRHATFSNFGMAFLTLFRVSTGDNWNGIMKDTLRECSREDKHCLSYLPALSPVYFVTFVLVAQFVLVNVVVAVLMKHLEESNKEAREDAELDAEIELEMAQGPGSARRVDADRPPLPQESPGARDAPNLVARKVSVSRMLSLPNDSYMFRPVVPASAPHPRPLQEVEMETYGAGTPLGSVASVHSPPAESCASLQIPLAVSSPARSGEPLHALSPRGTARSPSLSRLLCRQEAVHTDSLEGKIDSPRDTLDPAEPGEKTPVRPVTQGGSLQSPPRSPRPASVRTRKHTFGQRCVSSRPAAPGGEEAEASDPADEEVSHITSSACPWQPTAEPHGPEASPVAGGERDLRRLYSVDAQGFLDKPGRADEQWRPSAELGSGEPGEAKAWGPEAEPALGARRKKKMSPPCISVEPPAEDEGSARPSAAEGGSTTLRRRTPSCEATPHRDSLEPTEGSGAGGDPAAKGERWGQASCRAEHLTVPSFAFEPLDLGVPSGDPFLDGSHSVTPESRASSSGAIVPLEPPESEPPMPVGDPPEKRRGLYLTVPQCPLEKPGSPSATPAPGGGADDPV

In this assay the target is Cav3.2 (Homo sapiens, UniProt O95180). The assay can be described thus: Calcium flux FLIPR assay, HEK293 cells recombinantly expressing Cav3.2. The following applies: Cav3.2-channel, Ca2+ entry stimulated by 10 mM CaCl2. It is filed as cell-based. The essentials:
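Fluo-4-loaded HEK293 cells stably expressing Cav3.2, seeded overnight at 37 °C; compounds diluted in TEAC buffer (pH 7.2) and preincubated 3 min before Ca2+ entry triggered with CaCl2 at 10 mM final. Area under FLIPR fluorescence trace fitted sigmoidally; IC50 relative to vehicle signal.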
In general terms: Calcium assays in cells follow changes in intracellular calcium, usually with a dye or a luminescent sensor.
In the case of `O=C(Cc1ccc(C2(C(F)(F)F)CC2)cc1)Nc1cnn(Cc2ccc(OC(F)F)c(F)c2)n1` [Example 181, N-[2-(4-Difluoromethoxy-3-fluoro-benzyl)-2H-[1,2,3]triazol-4-yl]-2-[4-(1-trifluoromethyl-cyclopropyl)-phenyl]-acetamide], the IC50 stood at 86 nM.
For `Cc1ccc(Cn2ncc(NC(=O)Cc3ccc(C(C)(C)C)cc3)n2)cc1C#N` [Example 217, 2-(4-tert-Butyl-phenyl)-N-[2-(3-cyano-4-methyl-benzyl)-2H-[1,2,3]triazol-4-yl]-acetamide] the value was 160 nM; for `COc1ccc(Cn2ncc(NC(=O)Cc3ccc(N4CCCC4)nc3)n2)cc1` [Example 62, N-[2-(4-Methoxy-benzyl)-2H-[1,2,3]triazol-4-yl]-2-(6-pyrrolidin-1-yl-pyridin-3-yl)-acetamide], 120 nM; for `Cc1ccc(Cn2ncc(NC(=O)Cc3ccc4c(ccn4C)c3)n2)cc1` [Example 64, N-[2-(4-Methyl-benzyl)-2H-[1,2,3]triazol-4-yl]-2-(1-methyl-1H-indol-5-yl)-acetamide], 30 nM.
With `COc1c(F)cc(Cn2ncc(NC(=O)Cc3ccc4c(cnn4C)c3)n2)cc1F` [Example 82, N-[2-(3,5-Difluoro-4-methoxy-benzyl)-2H-[1,2,3]triazol-4-yl]-2-(1-methyl-1H-indazol-5-yl)-acetamide], the concentration for half-maximal inhibition (IC50) was determined as 23 nM.
Take `COc1ccc(Cn2ncc(NC(=O)Cc3ccc4cnn(C)c4c3)n2)cc1F` [Example 121, N-[2-(3-Fluoro-4-methoxy-benzyl)-2H-[1,2,3]triazol-4-yl]-2-(1-methyl-1H-indazol-6-yl)-acetamide]: the IC50 stood at 290 nM.
For `Cc1nn(C)c2ccc(CC(=O)Nc3cnn(Cc4ccc(OC(F)(F)F)c(F)c4)n3)cc12` [Example 191, 2-(1,3-Dimethyl-1H-indazol-5-yl)-N-[2-(3-fluoro-4-trifluoromethoxy-benzyl)-2H-[1,2,3]triazol-4-yl]-acetamide] the value was 11 nM.
Under `COc1cc(Cn2ncc(NC(=O)Cc3ccc4c(c3)c(C)cn4C)n2)cc(F)c1F` [Example 240, N-[2-(3,4-Difluoro-5-methoxy-benzyl)-2H-[1,2,3]triazol-4-yl]-2-(1,3-dimethyl-1H-indol-5-yl)-acetamide] stands 180 nM; under `Cc1ccc(Cn2ncc(NC(=O)Cc3ccc(C4(C)COC4)cc3)n2)cc1` [Example 67, N-[2-(4-Methyl-benzyl)-2H-[1,2,3]triazol-4-yl]-2-[4-(3-methyl-oxetan-3-yl)-phenyl]-acetamide], 66 nM; under `COc1ccc(Cn2ncc(NC(=O)Cc3ccc(N4CCCC4)nc3)n2)cc1F` [Example 156, N-[2-(3-Fluoro-4-methoxy-benzyl)-2H-[1,2,3]triazol-4-yl]-2-(6-pyrrolidin-1-yl-pyridin-3-yl)-acetamide], 70 nM.
In the case of `COc1c(F)cc(Cn2ncc(NC(=O)Cc3ccc(OCC4COC4)cc3)n2)cc1F` [Example 141, N-[2-(3,5-Difluoro-4-methoxy-benzyl)-2H-[1,2,3]triazol-4-yl]-2-[4-(oxetan-3-ylmethoxy)-phenyl]-acetamide], the IC50 was 86 nM.
`CCOc1ccc(Cn2ncc(NC(=O)Cc3ccc(N4CCC(F)(F)C4)nc3)n2)cc1` [Example 41, 2-[6-(3,3-Difluoro-pyrrolidin-1-yl)-pyridin-3-yl]-N-[2-(4-ethoxy-benzyl)-2H-[1,2,3]triazol-4-yl]-acetamide]: the IC50 was 18 nM.
For `N#Cc1ccc(Cn2ncc(NC(=O)Cc3ccc(C4(F)COC4)cc3)n2)cc1` [Example 198, N-[2-(4-Cyano-benzyl)-2H-[1,2,3]triazol-4-yl]-2-[4-(3-fluoro-oxetan-3-yl)-phenyl]-acetamide], the IC50 was 130 nM.
For `O=C(Cc1ccc(C2(C(F)(F)F)CC2)cc1)Nc1cnn(Cc2ccc(OC(F)(F)F)c(F)c2)n1` [Example 188, N-[2-(3-Fluoro-4-trifluoromethoxy-benzyl)-2H-[1,2,3]triazol-4-yl]-2-[4-(1-trifluoromethyl-cyclopropyl)-phenyl]-acetamide] the value was 96 nM; for `N#Cc1ccc(Cn2ncc(NC(=O)Cc3ccc(OCC4(F)COC4)cc3)n2)cc1` [Example 194, N-[2-(4-Cyano-benzyl)-2H-[1,2,3]triazol-4-yl]-2-[4-(3-fluoro-oxetan-3-ylmethoxy)-phenyl]-acetamide], 340 nM.
Under `COc1cc(Cn2ncc(NC(=O)Cc3ccc(C4(OC)COC4)cc3)n2)ccc1F` [Example 110, N-[2-(4-Fluoro-3-methoxy-benzyl)-2H-[1,2,3]triazol-4-yl]-2-[4-(3-methoxy-oxetan-3-yl)-phenyl]-acetamide] stands 140 nM.
For `O=C(Cc1ccc(C2(F)COC2)cc1)Nc1cnn(Cc2ccc(F)c(F)c2)n1` [Example 14, N-[2-(3,4-Difluoro-benzyl)-2H-[1,2,3]triazol-4-yl]-2-[4-(3-fluoro-oxetan-3-yl)-phenyl]-acetamide] the value was 17 nM.
Regarding `N#Cc1ccc(Cn2ncc(NC(=O)Cc3ccc(OCC4COC4)cc3)n2)cc1F` [Example 131, N-[2-(4-Cyano-3-fluoro-benzyl)-2H-[1,2,3]triazol-4-yl]-2-[4-(oxetan-3-ylmethoxy)-phenyl]-acetamide], the IC50 stood at 210 nM.
Take `COc1cc(Cn2ncc(NC(=O)Cc3ccc(OCC4CC(F)(F)C4)cc3)n2)ccc1F` [Example 111, 2-[4-(3,3-Difluoro-cyclobutylmethoxy)-phenyl]-N-[2-(4-fluoro-3-methoxy-benzyl)-2H-[1,2,3]triazol-4-yl]-acetamide]: the IC50 is 57 nM.
For `COCCOc1ccc(Cn2ncc(NC(=O)Cc3ccc(C(C)(C)C)cc3)n2)cc1` [Example 86, 2-(4-tert-Butyl-phenyl)-N-{2-[4-(2-methoxy-ethoxy)-benzyl]-2H-[1,2,3]triazol-4-yl}-acetamide] the value was 130 nM.
Under `COc1ccc(Cn2ncc(NC(=O)Cc3ccc(C(C)C)cc3)n2)cc1F` [Example 154, N-[2-(3-Fluoro-4-methoxy-benzyl)-2H-[1,2,3]triazol-4-yl]-2-(4-isopropyl-phenyl)-acetamide] stands 44 nM.
Under `O=C(Cc1ccc(C2COC2)cc1)Nc1cnn(Cc2ccc(F)c(F)c2)n1` [Example 23, N-[2-(3,4-Difluoro-benzyl)-2H-[1,2,3]triazol-4-yl]-2-(4-oxetan-3-yl-phenyl)-acetamide] stands 46 nM.
With `COC1(c2ccc(CC(=O)Nc3cnn(Cc4ccc(C)c(C#N)c4)n3)cc2)COC1` [Example 206, N-[2-(3-Cyano-4-methyl-benzyl)-2H-[1,2,3]triazol-4-yl]-2-[4-(3-methoxy-oxetan-3-yl)-phenyl]-acetamide], the IC50 was 900 nM.
For `O=C(Cc1ccc(N2CCC(F)(F)C2)nc1)Nc1cnn(Cc2ccc(OC(F)(F)F)c(F)c2)n1` [Example 189, 2-[6-(3,3-Difluoro-pyrrolidin-1-yl)-pyridin-3-yl]-N-[2-(3-fluoro-4-trifluoromethoxy-benzyl)-2H-[1,2,3]triazol-4-yl]-acetamide] the value was 17 nM; for `Cc1ccc(Cn2ncc(NC(=O)Cc3ccc(N4CCC(F)(F)C4)nc3)n2)cc1` [Example 65, 2-[6-(3,3-Difluoro-pyrrolidin-1-yl)-pyridin-3-yl]-N-[2-(4-methyl-benzyl)-2H-[1,2,3]triazol-4-yl]-acetamide], 23 nM.
As to `COc1ccc(Cn2ncc(NC(=O)Cc3ccc(OC4CC(F)(F)C4)cc3)n2)cc1F` [Example 125, 2-[4-(3,3-Difluoro-cyclobutoxy)-phenyl]-N-[2-(3-fluoro-4-methoxy-benzyl)-2H-[1,2,3]triazol-4-yl]-acetamide], the IC50 came out at 180 nM.
Under `CCN(CC)c1ccc(CC(=O)Nc2cnn(Cc3ccc(OC)c(OC)c3)n2)cn1` [Example 47, 2-(6-Diethylamino-pyridin-3-yl)-N-[2-(3,4-dimethoxy-benzyl)-2H-[1,2,3]triazol-4-yl]-acetamide] stands 560 nM; under `CCOc1ccc(Cn2ncc(NC(=O)Cc3ccc4c(cnn4C)c3)n2)cc1` [Example 46, N-[2-(4-Ethoxy-benzyl)-2H-[1,2,3]triazol-4-yl]-2-(1-methyl-1H-indazol-5-yl)-acetamide], 63 nM; under `N#Cc1ccc(Cn2ncc(NC(=O)Cc3cnc(N4CCCC4)c(F)c3)n2)cc1F` [Example 161, N-[2-(4-Cyano-3-fluoro-benzyl)-2H-[1,2,3]triazol-4-yl]-2-(5-fluoro-6-pyrrolidin-1-yl-pyridin-3-yl)-acetamide], 25 nM.
For `Cc1cc(Cn2ncc(NC(=O)Cc3ccc(C4(F)COC4)cc3)n2)ccc1C#N` [Example 235, N-[2-(4-Cyano-3-methyl-benzyl)-2H-[1,2,3]triazol-4-yl]-2-[4-(3-fluoro-oxetan-3-yl)-phenyl]-acetamide] the value was 92 nM.
For `COc1cc(Cn2ncc(NC(=O)Cc3ccc(OC4CC(F)(F)C4)cc3)n2)cc(F)c1F` [Example 230, 2-[4-(3,3-Difluoro-cyclobutoxy)-phenyl]-N-[2-(3,4-difluoro-5-methoxy-benzyl)-2H-[1,2,3]triazol-4-yl]-acetamide] the value was 350 nM; for `CCn1ncc2cc(CC(=O)Nc3cnn(Cc4ccc(C#N)c(F)c4)n3)ccc21` [Example 139, N-[2-(4-Cyano-3-fluoro-benzyl)-2H-[1,2,3]triazol-4-yl]-2-(1-ethyl-1H-indazol-5-yl)-acetamide], 69 nM; for `O=C(Cc1ccc(OC2CCC2)cc1)Nc1cnn(Cc2ccc(F)c(F)c2)n1` [Example 9, 2-(4-Cyclobutoxy-phenyl)-N-[2-(3,4-difluoro-benzyl)-2H-[1,2,3]triazol-4-yl]-acetamide], 22 nM.
Turning to `CCn1ncc2cc(CC(=O)Nc3cnn(Cc4cc(F)c(OC)c(F)c4)n3)ccc21` [Example 149, N-[2-(3,5-Difluoro-4-methoxy-benzyl)-2H-[1,2,3]triazol-4-yl]-2-(1-ethyl-1H-indazol-5-yl)-acetamide], the IC50 came to 29 nM.

For orientation: IC50 means the concentration needed to halve the response being measured.

The record behind these values is patent publication US10246426B2, “Triazole compounds as T-type calcium channel blockers” (IDORSIA PHARMACEUTICALS LTD, priority 2014, dated 2019).
